Data published in patent US9216169B2, “Pharmaceutical composition comprising candesartan or ester thereof and chlortalidone, and use thereof” (TIANJIN INSTITUTE OF PHARMACEUTICAL RESEARCH, priority 2011, dated 2015).
Where “and” joins values, the source holds several entries; their conditions need not be identical. Equal entries are not always repeated.

Tests used:
[1] = clinical studies; cited from earlier work
[2] = 25-50 mg/d of hydrochlorothiazide; clinical studies; cited from earlier work
[3] = test system: patients; conditions: study in 1714 patients; cited from earlier work
[4] = test system: Spontaneously hypertensive rats (SHR); assay: SBP of SHR by Tail-Cuff method, first administration and continuous administration for 14 days (Examples 8-12); type: in vivo, rat; conditions: for AUC0-24h: after first administration
Description: (§1) Spontaneously hypertensive rats (SHR), male, are provided by Beijing Vital River Laboratory Animal Technology Co., Ltd. The number of animal production license is SCXK (Jing) 2007-0001. Animals are raised in an observation room at the room temperature of 25±2° C. controlled by central air-conditioning system and with artificial lighting of 12 h/day. The animals are raised in separate cages sized 43×27×18 cm with 4 animals for each cage. The rats are free access to water and are fed with block fodder everyday, and the water supply is refreshed once a day. The temperature of the room for measuring the blood pressure is 26±2° C.
(§2) The blood pressure is measured by Tail-Cuff method and the hear rate is measured according to the pulse frequency. Animals are pre-trained for the blood pressure measurement for more than 2 weeks so as to adapt to the environment of measurement. Animals are placed in a isothermal bag at 37° C. to be prewarmed for 5 to 10 min for formal measurement. Blood pressures of the rats are measured from tail arteries for 2 to 3 times at rest states, and an average value is taken as each blood pressure measured value. All data are collected and preserved by a computer.
SHRs with systolic blood pressures (SBPs)>190 mmHg are selected for experiment.
Rats are randomly divided into 20 groups according to their blood pressures with each group having 8-10 rats. Animals are fasted overnight and measured for the blood pressure of pre-administration at the day of experiment, and then administered drugs in accordance with the following method:
The single-drug group is intragastrically administered candesartan (Can) or chlorthalidone (Chl), with the dosage of Can of 0.1, 0.2, 0.4 mg/kg respectively and the dosage of Chl of 0.3125, 0.625, 1.25 mg/kg respectively;
According to the clinical single-drug specification, the ratios of Can+Chl are set as follows:
For the ratio of Can:Chl=1:6.25, one dose of 0.1+0.625 mg/kg is set;
For the ratio of Can:Chl=1:3.125, two doses of 0.2+0.625 and 0.4+1.25 mg/kg are set;
For the ratio of Can:Chl=1.28:1, one dose of 0.4+0.3125 mg/kg is set;
For the ratio of Can:Chl=2.56:1, one dose of 0.4+0.15625 mg/kg is set;
The administration volumes are all 5 mL/kg. Rats are continuously administered for 14 days. SBPs are measured 2, 4, 8, 12 and 24 hours after the first administration. On the day of 3, 7, 14 days after administration, the blood pressures are measured before administration and 5 hours after administration. Areas under blood pressure reduction-time curve from 0 to 24 h and from 0 to 14 days (AUC0-24h, AUC0-14d) are calculated.
(§3) The calculated results are expressed as mean±standard error ( x±SE); statistical treatment is performed using unpaired t test between groups to compare the significance of the average difference; the interaction between drugs are determined by using factorial analysis of variance, and P<0.05 means the difference has statistical significance.

[5] = test system: Spontaneously hypertensive rats (SHR); assay: SBP of SHR by Tail-Cuff method, continuous intragastric administration for 8 days (Examples 1-7); type: in vivo, rat; conditions: for maximum reduction of the blood pressure / SBP / SBP difference value compared with the basic value / AUC0-24h (area under blood pressure reduction-time curve): Can 0.36 mg/kg i.g. 8 days; for maximum reduction of the blood pressure: 0-24 h after last administration; for AUC0-24h (area under blood pressure reduction-time curve): after last administration
Description: as §1, §2
SHRs with systolic blood pressures (SBPs) >190 mmHg are selected for experiment.
Rats are randomly divided into 14 groups according to their blood pressures with each group having 7 rats. Animals are fasted overnight and measured for the blood pressure of pre-administration at the day of experiment, and then administered drugs in accordance with the following method:
The single-drug group is intragastrically administered candesartan (Can) or chlorthalidone (Chl), with the dosage of Can of 0.36 mg/kg and the dosages of Chl of 0.0675, 0.36, 0.54, 0.72, 1.125 and 2.25 mg/kg respectively;
The pharmaceutical composition is administered with 6 different doses (denoted by F1, F2, F3, F4, F5 and F6 respectively). Specifically, the ratios of the dosages of Can+Chl in all pharmaceutical compositions are:
The administration volumes are all 5 ml/kg.
Rats are continuously administered for 8 days. SBPs are measured 2, 4, 8, 12 and 24 hours after the last administration. The area under blood pressure reduction-time curve from 0 to 24 h (AUC0-24) and the maximum blood pressure reduction value are calculated.
as §3

[6] = listed as candesartan cilexetil

For `NCCCC[C@H](N[C@@H](CCc1ccccc1)C(=O)O)C(=O)N1CCC[C@H]1C(=O)O` [lisinopril], which “valid control rate of blood pressure” value [1] is on record?
The value was 61.2%.

Which “lowering of 24-hour blood pressure” value [2] does the source give for `NS(=O)(=O)c1cc2c(cc1Cl)NCNS2(=O)=O` [hydrochlorothiazide, Hydrochlorothiazide] here?
The value was 7.4 mmHg.

What about the “lowering of night-time blood pressure” value [2] of the same compound?
The value was 6.4 mmHg.

For `CCOc1nc2cccc(C(=O)O)c2n1Cc1ccc(-c2ccccc2-c2nc(=O)o[nH]2)cc1` [azilsartan], which “reduction of SBP compared with the basic value” [3] is on record?
Its value is 12.1-15.9 mmHg.

For `CCOc1nc2cccc(C(=O)OC(C)OC(=O)OC3CCCCC3)c2n1Cc1ccc(-c2ccccc2-c2nn[nH]n2)cc1` (stereo not shown) [Can, Candesartan cilexetil], which AUC0-14d ([4]; Can 0.1 mg/kg i.g. for 14 days) is on record?
The AUC0-14d was −149.9 mmHg · d.

And the AUC0-24h ([4]; Can 0.1 mg/kg i.g.)?
The AUC0-24h was −209.1 mmHg · h.

And the AUC0-14d ([4]; Can 0.2 mg/kg i.g. for 14 days)?
The AUC0-14d was −173.1 mmHg · d.

And the AUC0-24h ([4]; Can 0.2 mg/kg i.g.)?
The AUC0-24h was −237.7 mmHg · h.

What about the AUC0-14d ([4]; Can 0.4 mg/kg i.g. for 14 days) of the same compound?
Its AUC0-14d is −227.3 mmHg · d.

What about the AUC0-24h ([4]; Can 0.4 mg/kg i.g.) of the same compound?
The AUC0-24h was −326.0 mmHg · h and −326 mmHg · h.

And the “maximum reduction of the blood pressure” value [5]?
Its value is −19.0 mmHg.

And the “maximum reduction of the blood pressure” value [5, 6]?
The value was 19.0 mmHg.

And the SBP ([5]; 2 h after last administration)?
Its SBP is 192 mmHg.

What about the “SBP difference value compared with the basic value” (“SBP difference value” for short) ([5]; 2 h after last administration) of the same compound?
The value was “(−11.0 mmHg”.

What about the SBP ([5]; 4 h after last administration) of the same compound?
The SBP was 185 mmHg.

And the “SBP difference value” ([5]; 4 h after last administration)?
Its value is “(−17.7 mmHg”.

And the SBP ([5]; 8 h after last administration)?
Its SBP is 196 mmHg.

And the “SBP difference value” ([5]; 8 h after last administration)?
The value was “(−7.3 mmHg”.

And the SBP ([5]; 12 h after last administration)?
The SBP was 199 mmHg.

What about the “SBP difference value” ([5]; 12 h after last administration) of the same compound?
The value was “(−3.7 mmHg”.

And the SBP ([5]; 24 h after last administration)?
Its SBP is 204 mmHg.

And the “SBP difference value” ([5]; 24 h after last administration)?
The value was “(1.4 mmHg”.

What about the “AUC0-24h (area under blood pressure reduction-time curve)” value [5] of the same compound?
The value was −127.0 mmHg · h.

What about the “AUC0-24h (area under blood pressure reduction-time curve)” value [5, 6] of the same compound?
Its value is −127 mmHg · h.

What about the SBP ([5]; pre-administration) of the same compound?
The SBP was 201 mmHg.

What about the “SBP difference value” ([5]; pre-administration) of the same compound?
Its value is “(−2.0 mmHg”.

What about the “period after administration with significant reduction of SBP” value ([5]; Can 0.36 mg/kg oral) of the same compound?
Its value is 2 to 8 h.

And the “time at which the antihypertensive effect takes effect after administration” value ([5]; Can 0.36 mg/kg oral)?
Its value is 2 h.
